Data from patent publication US20100331363A1, “TREATMENT OF MITOCHONDRIAL DISORDERS USING A FARNESYL TRANSFERASE INHIBITOR” (Link Medicine Corporation, priority 2008, published 2010).
“Also recorded” adds a separate entry of the source. Where two headings read alike, the source gives them in different places.

Tests used:
INS-1 cells = test: Whole cell mitochondrial fusion assay (paGFP) in INS-1 cells; type: cell-based; conditions: 1 nM, 48 hours
Description: Mitochondrial dynamics is necessary for the maintenance of bioenergetic functions and maintenance of homogenous population of mitochondria. Mutations in Mfn2 and Opal have been implicated in neuropathies. A whole cell fusion assay was used to evaluate the effect of LNK-754 on the enhancement of mitochondrial fusion and fission events. Photo-activateable GFP is used to label and follow an individual mitochondrion. Photo-activatable GFP becomes fluorescent only after absorbing UV light. Mitochondria undergo frequent fusion and fission. During fusion, the labeled mitochondrion passes fluorescent GFP to a neighboring unlabeled mitochondrion (Molina and Shirihai, […], 2009). […] The following assay protocol was followed: paGFP expression was carried out using adenoviral transduction if INS-1 cells. The cells were treated for 48 hours with 1 nM LNK-754. Mitochondria were labeled with TMRE to facilitate tagging. UV pulse was delivered by two-photon laser. Z-stacks of individual cells were taken every 5 minutes for 30 minutes. Three separate runs were performed over 3 weeks at imaging facilities.

human α-synuclein [1] = test: Masliah D-line α-synuclein transgenic mouse, α-synuclein immunoreactivity and ELISA; type: in vivo; conditions: 0.09 mg/kg, second trial (FIG. 2B)
human α-synuclein [2] = test: as above; type: in vivo
Description: Animals and treatments: Male and female human WT alpha-synuclein over-expressing transgenic mice^32 at 6 months of age were given vehicle (10% beta-cyclodextrin) or LNK-754-TS (0.09, 0.9 and 9 mg/kg) per oral gavage twice daily for 3 months or animals at 7 months of age were given vehicle (2.5% beta-cyclodextrin) or LNK-754-TS (2 mg/kg) once every three days for 3 months. Male and female TAU transgenic mice expressing TAU441 bearing the missense mutations V337M^50 and R406W under the control of the murine Thy-1 promoter with a CB6xC57BL/6 background were 5 months old at the time when the oral treatment for three months with LNK-754-TS (0.9 and 0.09 mg/kg) as well as vehicle (2.5% beta-cyclodextrin) was started. Female human APP/PS1 (APP (London V7171)/PS1(A246E)) over-expressing transgenic mice were treated with LNK-754-TS (0.9 mg/kg) or vehicle (2.5% beta-cyclodextrin) for 2 months or 12 days.
Immunohistochemistry and quantification of stained cells: For evaluation of α-synuclein immunoreactivity (IR), 5 sagittal cryo-cut sections (10 μm slice thickness) from five different layers were used for counting of IR cells in the cortex and hippocampus. Brain sections were stained with a monoclonal human α-synuclein specific antibody (Alexis®; Cat#804-258-L001; dilution 1:5), followed by a secondary Ab Cy 2-Goat Anti-Rat (Jackson ImmunoResearch®; dilution 1:200). IR positive cells were quantified using specialized image analysis software (Image Pro Plus, version 4.5.1.29). For Tau transgenic animals, 5 μm thick coronal paraffin sections were stained with the monoclonal mouse anti-human TAU-antibodies (AT180—1:100; HT7—1:500) and visualized using an anti-mouse Cy3 secondary antibody (1:500, Jackson Laboratories®). Images were evaluated with ImageProPlus (version 6.2) image analysis software. For APP/PS1 transgenic animals sagittal hemisections (40 μm) were collected and processed for Aβ immunohistochemistry using an 6E10 antibody, Thioflavin-S staining. Primary antibodies were detected by the ABC method.
ELISA quantification of α-Synuclein in the α-Synuclein transgenic animals: Brain homogenate was centrifuged and the supernatant saved as fraction F1. The pellet was washed then resuspended and saved as fraction F2. Plates (Nunc, 464718) were coated with SYN-1 (1:1000, BD Transduction Labs, 610787). Monomeric recombinant α-synuclein was included as an internal standard. Biotinylated antibody FL-140 (1:300, Santa Cruz Biotechnology, sc-10717-B) and ExtrAvidin-Alkaline phosphatase (3:5000, Sigma, E2636) was added followed by pNPP substrate solution (Sigma, N1891). Raw absorbance (405 nm) was then normalized to the total protein concentration of each sample. In the APP/PS1 transgenic animal, brains were homogenized and the supernatant, Faction 1, was separated from the pellet. The pellets were further processed with addition of NP40 and Triton X-100. The supernatant was separated from the pellet as the insoluble membrane, Fraction 2, and was dissolved in 8M Guanidine. To quantify the amount of human Aβ-40 and Aβ-42, ELISA kits were used (The Genetics Company, Zurich, Switzerland).
In FIG. 2 is shown efficacy data for LNK-754-TS in the Masliah D-line transgenic α-synuclein mouse (an accepted model of synucleinopathies). Two trials are shown, the first (FIG. 2A) at higher doses of LNK-754-TS: 45 mg/kg and 9 mg/kg. […] The second trial (FIG. 2B) explores the low dose range for efficacy in the α-synuclein models. Here, doses start as low as 0.9 mg/kg, and extend through 9 mg/kg, all below the efficacious dose range in the mouse oncology model.
After dosing with LNK-754-TS for three months (twice daily at 0.09 mg/kg or 0.9 mg/kg), α-synuclein accumulation in the brain was analyzed by immunohistochemical (human specific α-synuclein immunoreactivity) and biochemical (α-synuclein ELISA) means. […]

FTase = FTase (Homo sapiens, UniProt P49354+P49356); test: Table 5A in vitro FTI (H-Ras, K-Ras protein) and Ki FTase; type: biochemical
Description: The selectivity of LNK-754 for FTase over GGTAse is shown below in Table 5A.

[3] = system: 3T3H-ras (61 L) xenograft tumor; Ras farnesylation; conditions: continuous infusion, 7 day treatment, cited from earlier work
TAU441 transgenic mice = test: Porsolt forced swim task in TAU441 transgenic mice; type: in vivo, mouse; conditions: 0.09 mg/kg daily for 90 days
Description: Tests relevant to depression-like behaviors in rodents are primarily stress-induced reductions in avoidance or escape, termed behavioral despair. One of the most widely used animal tests for depression is the Porsolt forced swim task (Porsolt et al., Arch. Int. Pharmacodyn. Ther. 229(2):327-36, 1977; Porsolt et al., Eur. J. Pharmacol. 47(4):379-91, 1978). This study was designed to evaluate the effects of treatment with LNK-754 on behavior of TAU441 transgenic mice. At start of the treatment, the animals were 5 months old. Untreated non-transgenic animals of the same age were tested and sacrificed serving as the baseline group. Mice received vehicle or LNK-754-TS at a dose of 0.09 mg per kg, 7 days a week for 90 days. In the last week of the treatment period and before sacrifice, mice were evaluated using the Porsolt forced swim task (FIG. 10B).

[4] = 9 mg/kg PO BID 3 months, first trial (FIG. 2A)
[5] = 45 mg/kg PO BID 3 months (FIG. 2A)
[6] = α-synuclein transgenic mice vs vehicle
[7] = 0.09 or 0.9 mg/kg twice daily, three months

## C#Cc1cccc(-c2cc(=O)n(C)c3ccc([C@](O)(c4ccc(Cl)cc4)c4cncn4C)cc23)c1 [LNK-754, (R)-6-[(4-chlorophenyl)-hydroxyl-(1-methyl-1-H-imidazol-5-yl)-methyl]-4-(3-ethynylphenyl)-1-methyl-2-(1H)-quinonlinone]
INS-1 cells
  mitochondrial dynamics (fusion and fission): promotes mitochondrial dynamics
Human α-synuclein [1]
  number of α-synuclein positive neurons: significantly lowered
Human α-synuclein [2]; 0.9 mg/kg, second trial (FIG. 2B)
  number of α-synuclein positive neurons: significantly lowered
Human α-synuclein [2]; [4]
  number of α-synuclein positive neurons: found to significantly lower
Human α-synuclein [2]; [5]
  number of α-synuclein positive neurons: did not significantly lower; also recorded: not found to significantly lower
Human α-synuclein [2]; [6]
  levels of α-synuclein in the hippocampus: decrease levels of α-synuclein
  α-synuclein inclusions: fewer α-synuclein inclusions
FTase
  Ki: < 0.05 nM
FTase; ratio
  GGTI/FTI (H-Ras): 580
  GGTI/FTI (K-Ras): 40.11
FTase; read-out: H-Ras protein CLVS in vitro FTI
  IC50: 0.9 nM
FTase; read-out: K-Ras protein CVIM in vitro FTI
  IC50: 72 nM
[3]; tumor tissue
  inhibition of Ras farnesylation at which significant inhibition of tumor growth was seen: at least 50%
[3]
  continuous serum level at which significant inhibition of tumor growth was seen: above 100 ng/mL

## C#Cc1cccc(-c2cc(=O)n(C)c3ccc([C@](O)(c4ccc(Cl)cc4)c4cncn4C)cc23)c1 [LNK-754-TS, (R)-6-[(4-chlorophenyl)-hydroxyl-(1-methyl-1-H-imidazol-5-yl)-methyl]-4-(3-ethynylphenyl)-1-methyl-2-(1H)-quinonlinone (2S, 3S)-dihydroxybutanedioate]
Human α-synuclein [2]; 0.09 mg/kg or 0.9 mg/kg twice daily, three months, cortex and hippocampus
  α-synuclein accumulation in brain (immunoreactivity and ELISA): clearly reduced; also recorded: halts deposition
Human α-synuclein [2]; 2 mg/kg once every 72 hours, three months, vs baseline and vehicle
  cortical α-synuclein immunoreactivity: significantly lower than at the outset of treatment; also recorded: significantly reduces
Human α-synuclein [2]; [4]
  number of α-synuclein positive neurons: significant reduction
Human α-synuclein [2]; 9 mg/kg PO BID 3 months, second lower dose trial (FIG. 2B)
  number of α-synuclein IR cells in hippocampus: significance level was not reached
Human α-synuclein [2]; [5]
  number of α-synuclein positive neurons: not significantly effective
Human α-synuclein [2]; [7]
  astrocytosis (GFAP staining): GFAP staining was unchanged
  drug-dependent toxicity: None of the treated animals showed any evidence
  neuronal loss (NeuN staining and brain volume): no evidence of neuronal loss
  synaptic damage (synaptophysin staining): synaptophysin staining was unchanged
Human α-synuclein [2]; three-month dosing trial (FIG. 9c)
  reduction of α-synuclein immunoreactivity, hippocampal slices: ca. 50%
TAU441 transgenic mice
  behavior compared with non-transgenic mice, forced swim task: behaved similar to non-transgenic mice; also recorded: behaved similarly to non-tg mice
TAU441 transgenic mice; vs vehicle
  floating, forced swim task: significantly less floating; also recorded: decreasing floating behavior
  struggling behavior, forced swim task: higher percentage of struggling behavior; also recorded: increasing struggling behavior
